Mortality data for 1 compound are collected here from patent US11407756B2, “Heterocyclic compounds and noxious arthropod control agent containing same” (SUMITOMO CHEMICAL COMPANY, LIMITED, priority 2017, dated 2022).

In general, mortality refers to the percentage killed. Low readings indicate more survivors, high ones fewer survivors.

In the data set the test system is German cockroaches (Blattella germanica). Description: Test method 8: treated filter paper with sucrose, male adult German cockroaches. Format: in vivo. The settings on record: 500 ppm, 0.7 mL on filter paper, after 6 days, 25° C. As for the experimental part:
Next, Test Examples are used to show effects of the Present compounds X on harmful arthropods. In the following Test Examples, the tests were carried out at 25° C.
Each test compound is formulated according to the process described in the Formulation Example 5 to obtain each formulation, and water is added thereto to prepare a diluted solution containing a prescribed concentration of each test compound.
A filter paper having a diameter of 5.5 cm is lined with the inside bottom of a cup having a diameter of 5.5 cm, each of said diluted solutions (0.7 mL) is added dropwise on the filter paper, and sucrose (30 mg) is homogeneously placed into said cup as a feed. Two (2) male adult German cockroaches (Blattella germanica) are released into said cup, and the cup is covered. After 6 days, life and death of the German cockroach are examined, the number of the dead insects is counted, and the mortality of insects is calculated by the following equation. Mortality(%)=(Number of dead insects/Number of test insects)×100

In the case of `CCS(=O)(=O)c1cc(OC(C)C)cnc1-n1ccc2nc(C(F)(F)F)cn2c1=O` [compound 12], the mortality is given as 100%.
